{"source": "patent US7790733B2", "about": "“8-alkoxy or cycloalkoxy-4-methyl-3,4-dihydro-quinazolin-2-ylamines” (Hoffman-La Roche Inc., priority 2005, dated 2010)", "data": [{"molecular_target": "T1, recombinant human 5-HT5A receptor (Homo sapiens, UniProt P47898)", "T1 construct": "expressed in transfected cells; host or cells: Human Embryonic Kidney-EBNA (HEK-EBNA) cells, transient cDNA expression, membranes", "T1 sequence (P47898 whole entry)": "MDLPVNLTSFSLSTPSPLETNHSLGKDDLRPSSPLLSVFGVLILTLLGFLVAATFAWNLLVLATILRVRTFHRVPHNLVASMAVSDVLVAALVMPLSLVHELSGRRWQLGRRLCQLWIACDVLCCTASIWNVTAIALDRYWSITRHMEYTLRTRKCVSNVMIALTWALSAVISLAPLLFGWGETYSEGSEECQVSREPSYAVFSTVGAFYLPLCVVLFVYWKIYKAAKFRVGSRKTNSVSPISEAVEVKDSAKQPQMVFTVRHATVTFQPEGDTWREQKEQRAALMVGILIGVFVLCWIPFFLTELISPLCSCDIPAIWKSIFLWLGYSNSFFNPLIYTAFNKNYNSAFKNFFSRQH", "experiment": "[3H]LSD radioligand binding assay, recombinant human 5-HT5A receptor in HEK-EBNA cell membranes", "settings": "[3H]LSD approx. 1 nM; membranes from HEK-EBNA cells transiently expressing 5-HT5A; Ki from IC50 by Cheng-Prussoff equation", "protocol": "A [^3H]LSD radioligand binding assay was used to determine the affinity of the compounds for the recombinant human 5-HT5A receptor, in membranes from transiently (cDNA) expressed 5-HT5A receptors in Human Embryonic Kidney-EBNA (HEK-EBNA) cells. Assay buffer consisted of Tris (50 mM) buffer containing 1 mM EGTA, 10 mM MgCl2 (pH 7.4) and 10 μM pargyline. The binding assay was carried out in 96-well-plates in the presence of [^3H]LSD (approximately 1 nM), approximately 2 μg/well of membrane protein, and 0.5 mg of Ysi-poly-1-lysine SPA beads in a final volume of 200 μl of buffer. Non-specific binding was defined using methiothepin 2 μM. Compounds were tested at 10 concentrations. All assays were conducted in duplicate and repeated at least two times. Assay plates were incubated for 120 min at room temperature before centrifugation. Bound ligand was determined using a Packard Topcount scintillation counter. IC50 values were calculated using a non-linear curve fitting program and Ki values calculated using the Cheng-Prussoff equation. The activity of representative compounds (≦0.05 μM) is described in the table below: […]", "units": {"Ki": "nM"}, "values": [{"smiles": "COc1cccc2c1N=C(N)NC2C", "note": "(centres unmarked) [Example 1, 8-Methoxy-4-methyl-3,4-dihydro-quinazolin-2-ylamine]", "Ki": 6.34}, {"smiles": "CC(C)Oc1cccc2c1N=C(N)NC2C", "note": "(centres unmarked) [Example 2, 8-Isopropoxy-4-methyl-3,4-dihydro-quinazolin-2-ylamine]", "Ki": 9.96}, {"smiles": "CCOc1cccc2c1N=C(NCC(F)F)NC2C", "note": "(centres unmarked) [Example 3, (2,2-Difluoro-ethyl)-(8-ethoxy-4-methyl-3,4-dihydro-quinazolin-2-yl)-amine]", "Ki": 14.1}, {"smiles": "CC(C)Oc1cccc2c1N=C(NCC(F)F)NC2C", "note": "(centres unmarked) [Example 4, (2,2-Difluoro-ethyl)-(8-isopropoxy-4-methyl-3,4-dihydro-quinazolin-2-yl)-amine]", "Ki": 23.2}, {"smiles": "CNC1=Nc2c(OC(C)C)cccc2C(C)N1", "note": "(centres unmarked) [Example 5, (8-Isopropoxy-4-methyl-3,4-dihydro-quinazolin-2-yl)-methyl-amine]", "Ki": 25.4}, {"smiles": "COc1cccc2c1N=C(NCC(F)F)NC2C", "note": "(centres unmarked) [Example 6, (2,2-Difluoro-ethyl)-(8-methoxy-4-methyl-3,4-dihydro-quinazolin-2-yl)-amine]", "Ki": 28.2}, {"smiles": "CCOc1cccc2c1N=C(NC)NC2C", "note": "(centres unmarked) [Example 7, (8-Ethoxy-4-methyl-3,4-dihydro-quinazolin-2-yl)-methyl-amine]", "Ki": 34.5}, {"smiles": "CCOc1cccc2c1N=C(N)NC2C", "note": "(centres unmarked) [Example 8, 8-Ethoxy-4-methyl-3,4-dihydro-quinazolin-2-ylamine]", "Ki": 37.2}, {"smiles": "CNC1=Nc2c(OC)cccc2C(C)N1", "note": "(centres unmarked) [Example 9, (8-Methoxy-4-methyl-3,4-dihydro-quinazolin-2-yl)-methyl-amine]", "Ki": 38.4}, {"smiles": "CNC1=Nc2c(OC3CCCC3)cccc2C(C)N1", "note": "(centres unmarked) [Example 16, (8-Cyclopentyloxy-4-methyl-3,4-dihydro-quinazolin-2-yl)-methyl-amine]", "Ki": 16.2}, {"smiles": "CC1NC(NCC(F)F)=Nc2c(OC3CCCC3)cccc21", "note": "(centres unmarked) [Example 17, (8-Cyclopentyloxy-4-methyl-3,4-dihydro-quinazolin-2-yl)-(2,2-difluoro-ethyl)-amine]", "Ki": 22.4}, {"smiles": "COc1cc(Cl)c(C)c2c1N=C(N)NC2C", "note": "(centres unmarked) [Example 18, 6-Chloro-8-methoxy-4,5-dimethyl-3,4-dihydro-quinazolin-2-ylamine]", "Ki": 4.7}, {"smiles": "COc1cc(Cl)c(C)c2c1N=C(NC1CCC1)NC2C", "note": "(centres unmarked) [Example 19, (6-Chloro-8-methoxy-4,5-dimethyl-3,4-dihydro-quinazolin-2-yl)-cyclobutyl-amine]", "Ki": 47.5}, {"smiles": "CNC1=Nc2c(OC)cc(Cl)c(C)c2C(C)N1", "note": "(centres unmarked) [Example 20, (6-Chloro-8-methoxy-4,5-dimethyl-3,4-dihydro-quinazolin-2-yl)-methyl-amine]", "Ki": 42.6}]}]}
